Reference: PubChem BioAssay AID1963436 (Molecular Pharmacology Branch, DTP, NCI, 2024)

System: OVCAR-5 complex spheroid (HUVEC/MSC), viability % T/C
Assay: Anticancer human tumor OVCAR-5 cell line growth inhibition [Asc];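 note: spheroids exposed to agents for 7 days before readout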;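 for viability, T/C: 100% = DMSO vehicle-treated wells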
Conditions: for IC50: curve of first compound; for viability, T/C: stronger effect = lower value
How it was run: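 Complex spheroids combining tumor cells with HUVEC endothelial cells and human MSCs, at 37 degrees C, 5% CO2; agents tested alone or combined, half-log dilutions from at or near clinical Cmax, or 10 microM if Cmax unknown.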

Work on `C=C(F)C(=O)N1CCN(c2nc(OCC3CCCN3C)nc3c2CCN(c2cccc4cccc(Cl)c24)C3)CC1CC#N` (stereo not given) + CNC(C)C(=O)NC1CN(S(=O)(=O)c2cccc(S(=O)(=O)N3CCC4CCC(C(=O)NC(c5ccccc5)c5ccccc5)N4C(=O)C(NC(=O)C(C)NC)C3)c2)CCC2CCC(C(=O)NC(c3ccccc3)c3ccccc3)N2C1=O yielded an IC50 (second compound 0.01 µM) of 1320 nM, an IC50 (second compound 0.0316 µM) of 1150 nM and an IC50 (second compound 0.1 µM) of 968 nM. It also gave an IC50 (second compound 0.316 µM) of 844 nM, an IC50 (second compound 1 µM) of 740 nM and a viability, T/C (second compound 0.01 µM, first compound 0.0316 µM) of 105%. It also gave a viability, T/C (second compound 0.01 µM, first compound 0.1 µM) of 93.5%, a viability, T/C (second compound 0.01 µM, first compound 0.316 µM) of 82.5% and a viability, T/C (second compound 0.01 µM, first compound 1 µM) of 66.2%. The viability, T/C (second compound 0.01 µM, first compound 3.16 µM) was 11.3%, the viability, T/C (second compound 0.01 µM, first compound 10 µM) was 0.22% and the viability, T/C (second compound 0.0316 µM, first compound 0.0316 µM) was 94.4%. It also gave a viability, T/C (second compound 0.0316 µM, first compound 0.1 µM) of 78.9%, a viability, T/C (second compound 0.0316 µM, first compound 0.316 µM) of 79% and a viability, T/C (second compound 0.0316 µM, first compound 1 µM) of 56.7%. It also gave a viability, T/C (second compound 0.0316 µM, first compound 3.16 µM) of 11.6%, a viability, T/C (second compound 0.0316 µM, first compound 10 µM) of 0.16% and a viability, T/C (second compound 0.1 µM, first compound 0.0316 µM) of 92%. For the same molecule, the viability, T/C (second compound 0.1 µM, first compound 0.1 µM) was 84%, the viability, T/C (second compound 0.1 µM, first compound 0.316 µM) was 76.9% and the viability, T/C (second compound 0.1 µM, first compound 1 µM) was 51.2%. The viability, T/C (second compound 0.1 µM, first compound 3.16 µM) was 10.4%, the viability, T/C (second compound 0.1 µM, first compound 10 µM) was 0.18% and the viability, T/C (second compound 0.316 µM, first compound 0.0316 µM) was 90.5%. For the same molecule, the viability, T/C (second compound 0.316 µM, first compound 0.1 µM) was 79.2%, the viability, T/C (second compound 0.316 µM, first compound 0.316 µM) was 70.4% and the viability, T/C (second compound 0.316 µM, first compound 1 µM) was 50.3%. It also gave a viability, T/C (second compound 0.316 µM, first compound 3.16 µM) of 9.19%, a viability, T/C (second compound 0.316 µM, first compound 10 µM) of 0.16% and a viability, T/C (second compound 1 µM, first compound 0.0316 µM) of 90.3%. The viability, T/C (second compound 1 µM, first compound 0.1 µM) was 89.5%, the viability, T/C (second compound 1 µM, first compound 0.316 µM) was 67% and the viability, T/C (second compound 1 µM, first compound 1 µM) was 46.5%. It also gave a viability, T/C (second compound 1 µM, first compound 3.16 µM) of 10.2% and a viability, T/C (second compound 1 µM, first compound 10 µM) of 0.23%.
